Assay results: article PMC5487681, “Identification of Antifungal H^+-ATPase Inhibitors with Effect on Plasma Membrane Potential” (Antimicrobial Agents and Chemotherapy, 2017)
Values after ≈ are worked out from the molar mass of the structure shown. Where two headings read alike, the source gives them in different places. Residues, ends and D or L forms follow the SMILES beside them.

Key:
S. cerevisiae Pma1 = S. cerevisiae Pma1 (Saccharomyces cerevisiae, UniProt P05030); assay: ATP hydrolysis assay, S. cerevisiae plasma membranes containing Pma1; format: biochemical; set-up: containing the full-length cDNA of the S. cerevisiae plasma membrane H^+-ATPase isoform PMA1; made in house; host or cells: S. cerevisiae RS72 (PMA1 cDNA under PMA1 promoter); also wild-type S. cerevisiae ATCC 9763
Procedure: Plasma membranes containing Pma1 were isolated from S. cerevisiae RS72 cells containing the full-length cDNA of the S. cerevisiae plasma membrane H^+-ATPase isoform PMA1 under the control of the PMA1 promoter, as described in reference.
A 100-ml overnight culture in YPD medium [10 g/liter yeast extract (BD, Sparks, MD), 20 g/liter Bacto peptone (BD), 20 g/liter D-(+)-glucose] was transferred to 1 liter YPD medium and grown at room temperature and 150 rpm for 18 h for wild-type S. cerevisiae (ATCC 9763) and 7 h for C. albicans. The cells were harvested and washed in Milli-Q H2O by centrifugation at 3,360 × g. The cells were glucose activated by the addition of 10% D-(+)-glucose for 10 min while shaking. The cells were then centrifuged at 3,360 × g for 3 min and frozen. Cells (60 to 80 g, wet weight) were then disrupted by bead beating (BioSpec, Bartlesville, OK) and processed as described in reference to prepare the plasma membranes. […] All batches were validated by ATPase hydrolysis activity, pH optimum, and orthovanadate sensitivity.
The protein activity levels were determined by measuring the amount of free phosphate produced from the ATP hydrolysis reaction. The assay was performed as described in reference. Each well contained ATPase enzyme, 2 μl of inhibitor (usually in the range of 333 to 0.01 μM) dissolved in dimethyl sulfoxide (DMSO) (Duchefa Biochemie, Haarlem, The Netherlands), and an assay buffer dependent on the enzyme for a final volume of 60 μl. Possible compound precipitation in the assay buffer was monitored using a Nephelostar plate reader measuring turbidity, and the information was taken into account in the IC50 determination. Pma1 assay buffer consisted of 20 mM 3-(N-morpholino)propanesulfonic acid (MOPS)–NaOH, pH 6.5 or 7.0, 8 mM MgSO4, 50 mM KNO3 (a vacuolar ATPase inhibitor), 25 mM sodium azide (a mitochondrial ATPase inhibitor), and 250 μM sodium molybdate (an acid phosphatase inhibitor). SERCA buffer consisted of 9 mM MOPS-NaOH, pH 7, 2.7 mM MgCl2, 90 μM CaCl2, and 72 mM KCl. Na^+,K^+-ATPase buffer consisted of 30 mM MOPS-NaOH, pH 7, 40 mM NaCl, 4 mM MgCl2, and 20 mM KCl. The concentration of protein was adjusted to obtain a signal of the optical density at 860 nm (OD860) of between 0.5 and 1.0 in the untreated samples (for all Pma1 batches, ∼1 to 2 μg/well; for SERCA and Na^+,K^+-ATPase, ∼0.1 to 0.2 μg/well). […]

[1] = system: Aspergillus fumigatus ATCC 13073; assay: microbe, parasite or virus in culture; conditions: for MIC: Aspergillus fumigatus, ATCC13073, 72 h, pH 7, read-out: MIC A. fumigatus
Procedure: (§1) The following fungal isolates were used: Saccharomyces cerevisiae ATCC 9763, Candida albicans SC5314, Candida parapsilosis ATCC 22019, Candida tropicalis Ct016, Candida glabrata ATCC 90030, Aspergillus fumigatus ATCC 13073, and Aspergillus flavus ATCC MYA-1005. Frozen stocks of yeast isolates in glycerol (final concentration, 20%) were prepared by growing the cells to log phase in YPD medium at 30°C and 150 rpm. Frozen stocks of mold spores were prepared by harvesting spores from 7-day-old potato glucose agar plates in phosphate-buffered saline, 0.1% Tween 80 and aliquoting these spores in the presence of glycerol (final concentration, 20%). The cells were stored at −80°C. The cells or spores were thawed and diluted to a final concentration of 0.5 × 10^5 to 2.5 × 10^5 CFU/ml in sterile Milli-Q H2O. […] The plate was incubated for 20 to 24 h at 34°C (72 h for molds), and the OD490 was measured on a Victor X5 (PerkinElmer) plate reader. Mold growth assay plates were also visually inspected. The MIC was defined as the lowest concentration inhibiting the visual growth of the microorganism.

[2] = system: Candida glabrata ATCC 90030; assay: microbe, parasite or virus in culture; conditions: for MIC: Nakaseomyces glabratus, ATCC90030, pH 7, read-out: MIC C. glabrata
Procedure: as §1

Candida tropicalis Ct016 = assay: microbe, parasite or virus in culture; conditions: for MIC: Candida tropicalis, CT016, pH 7, read-out: MIC C. tropicalis
Procedure: as §1

Ca^2+-ATPase (SERCA1a) = Ca^2+-ATPase (SERCA1a) (Oryctolagus cuniculus, UniProt P04191); assay: ATP hydrolysis assay, SERCA; format: biochemical, rabbit
Procedure: Rabbit sarcoplasmic reticulum membranes containing sarcoplasmic endoplasmic reticulum Ca^2+-ATPase (SERCA) were kindly provided by Claus E. Olesen and Jesper V. Møller, Aarhus University, and prepared as described in reference. Porcine kidney Na^+,K^+-ATPase was kindly provided by Natalya Fedosova, Aarhus University, and prepared as described in reference.
The protein activity levels were determined by measuring the amount of free phosphate produced from the ATP hydrolysis reaction. The assay was performed as described in reference. Each well contained ATPase enzyme, 2 μl of inhibitor (usually in the range of 333 to 0.01 μM) dissolved in dimethyl sulfoxide (DMSO) (Duchefa Biochemie, Haarlem, The Netherlands), and an assay buffer dependent on the enzyme for a final volume of 60 μl. Possible compound precipitation in the assay buffer was monitored using a Nephelostar plate reader measuring turbidity, and the information was taken into account in the IC50 determination. Pma1 assay buffer consisted of 20 mM 3-(N-morpholino)propanesulfonic acid (MOPS)–NaOH, pH 6.5 or 7.0, 8 mM MgSO4, 50 mM KNO3 (a vacuolar ATPase inhibitor), 25 mM sodium azide (a mitochondrial ATPase inhibitor), and 250 μM sodium molybdate (an acid phosphatase inhibitor). SERCA buffer consisted of 9 mM MOPS-NaOH, pH 7, 2.7 mM MgCl2, 90 μM CaCl2, and 72 mM KCl. Na^+,K^+-ATPase buffer consisted of 30 mM MOPS-NaOH, pH 7, 40 mM NaCl, 4 mM MgCl2, and 20 mM KCl. The concentration of protein was adjusted to obtain a signal of the optical density at 860 nm (OD860) of between 0.5 and 1.0 in the untreated samples (for all Pma1 batches, ∼1 to 2 μg/well; for SERCA and Na^+,K^+-ATPase, ∼0.1 to 0.2 μg/well).

[3] = Table 1, ATP hydrolysis at pH 6.5 (compounds marked b), 2 to 3 experiments, read-out: IC50 Pma1
[4] = Table 1, ATP hydrolysis at pH 7, 2 to 3 experiments, read-out: IC50 Pma1
[5] = ATP hydrolysis, S. cerevisiae Pma1, read-out: IC50 for Pma1

Ca^2+-ATPase (SERCA1a), sequence (P04191 1-994 isoform P04191-2): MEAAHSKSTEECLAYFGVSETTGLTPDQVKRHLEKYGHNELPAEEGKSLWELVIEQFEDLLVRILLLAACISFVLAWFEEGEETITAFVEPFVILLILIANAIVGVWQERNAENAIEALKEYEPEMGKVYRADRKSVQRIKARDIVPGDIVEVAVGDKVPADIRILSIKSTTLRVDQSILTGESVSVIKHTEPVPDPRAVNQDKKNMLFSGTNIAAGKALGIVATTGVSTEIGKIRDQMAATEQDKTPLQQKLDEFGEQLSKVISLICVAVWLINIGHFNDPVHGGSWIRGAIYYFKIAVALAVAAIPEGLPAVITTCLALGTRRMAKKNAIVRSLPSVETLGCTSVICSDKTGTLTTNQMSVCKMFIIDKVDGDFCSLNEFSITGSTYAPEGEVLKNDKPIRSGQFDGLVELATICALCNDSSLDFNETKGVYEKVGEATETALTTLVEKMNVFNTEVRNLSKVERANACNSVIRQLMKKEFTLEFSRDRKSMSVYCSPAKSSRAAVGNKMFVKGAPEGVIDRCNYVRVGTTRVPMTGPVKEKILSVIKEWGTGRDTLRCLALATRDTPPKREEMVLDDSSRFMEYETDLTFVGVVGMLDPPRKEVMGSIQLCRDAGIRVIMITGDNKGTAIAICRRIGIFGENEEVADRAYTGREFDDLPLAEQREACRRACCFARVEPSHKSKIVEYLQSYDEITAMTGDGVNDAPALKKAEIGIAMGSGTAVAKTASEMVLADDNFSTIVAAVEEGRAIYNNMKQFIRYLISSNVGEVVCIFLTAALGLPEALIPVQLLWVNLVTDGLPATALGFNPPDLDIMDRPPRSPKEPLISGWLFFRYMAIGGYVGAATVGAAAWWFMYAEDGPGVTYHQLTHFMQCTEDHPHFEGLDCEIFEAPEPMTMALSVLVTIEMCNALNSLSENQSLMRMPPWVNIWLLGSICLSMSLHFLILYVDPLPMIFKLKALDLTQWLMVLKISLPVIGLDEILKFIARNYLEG
S. cerevisiae Pma1, sequence (P05030 whole entry, canonical isoform): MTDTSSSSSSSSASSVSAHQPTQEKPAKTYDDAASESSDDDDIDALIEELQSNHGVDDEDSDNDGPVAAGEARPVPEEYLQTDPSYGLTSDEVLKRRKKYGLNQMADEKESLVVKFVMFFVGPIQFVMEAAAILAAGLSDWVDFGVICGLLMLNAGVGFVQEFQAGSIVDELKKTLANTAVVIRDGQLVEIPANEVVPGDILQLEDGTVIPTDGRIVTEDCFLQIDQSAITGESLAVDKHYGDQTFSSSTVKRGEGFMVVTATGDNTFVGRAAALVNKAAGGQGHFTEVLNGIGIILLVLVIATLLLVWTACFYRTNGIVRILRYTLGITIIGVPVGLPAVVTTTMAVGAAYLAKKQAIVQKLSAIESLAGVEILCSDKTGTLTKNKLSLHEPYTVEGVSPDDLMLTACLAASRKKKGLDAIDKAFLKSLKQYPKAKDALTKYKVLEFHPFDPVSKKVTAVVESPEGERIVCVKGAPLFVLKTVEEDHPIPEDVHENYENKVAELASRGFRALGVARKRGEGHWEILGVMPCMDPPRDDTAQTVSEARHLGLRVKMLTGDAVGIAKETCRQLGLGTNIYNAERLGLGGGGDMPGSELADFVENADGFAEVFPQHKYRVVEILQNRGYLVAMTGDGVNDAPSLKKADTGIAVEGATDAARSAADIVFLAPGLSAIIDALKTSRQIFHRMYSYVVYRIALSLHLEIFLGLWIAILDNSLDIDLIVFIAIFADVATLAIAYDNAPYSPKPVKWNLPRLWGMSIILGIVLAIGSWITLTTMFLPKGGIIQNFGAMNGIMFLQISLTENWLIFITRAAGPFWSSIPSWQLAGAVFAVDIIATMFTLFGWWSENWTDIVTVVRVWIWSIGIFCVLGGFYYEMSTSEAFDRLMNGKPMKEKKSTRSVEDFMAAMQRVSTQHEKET

Structure (SMILES)	IC50 (S. cerevisiae Pma1; Table 2, pH 7, n = 2, read-out: IC50 for ATP hydrolysis, S. cerevisiae Pma1)	Selectivity for Pma1 over Na^+,K^+-ATPase (S. cerevisiae Pma1; from IC50 of Table 2)	MIC for growth inhibition, A. fumigatus ([1]; ATCC 13073)	MIC for growth inhibition, C. glabrata ([2]; ATCC 90030)	MIC for growth inhibition, C. tropicalis (Candida tropicalis Ct016; Ct016)	IC50 (Ca^2+-ATPase (SERCA1a))	IC50 (S. cerevisiae Pma1; [3])	MIC [1]	MIC [2]	MIC (Candida tropicalis Ct016)	IC50 (S. cerevisiae Pma1; [4])	IC50 (S. cerevisiae Pma1; [5])
N=C(N)NCCC[C@@H](N)C(=O)N[C@H](CCCNC(=N)N)C(=O)N[C@H](CCCNC(=N)N)C(=O)N[C@H](Cc1ccccc1)C(=O)N[C@H](Cc1c[nH]c2ccccc12)C(=O)N[C@H](Cc1c[nH]c2ccccc12)C(=O)N[C@H](Cc1ccccc1)C(=O)N[C@H](CCCNC(=N)N)C(=O)N[C@H](CCCNC(=N)N)C(=O)N[C@H](CCCNC(=N)N)C(N)=O [BM2, reference compound] (HELM PEPTIDE1{[dR].[dR].[dR].[dF].[dW].[dW].[dF].[dR].[dR].[dR].[am]}$$$$V2.0)	1.2 ± 0.1 µM	8 fold	>150 µM	150 µM	4.7 µM	1.1 µM	–	–	–	–	–	–
O=C1/C(=C/c2ccc(-c3cc(Cl)ccc3Cl)o2)C=C(c2ccccc2)N1c1ccccc1O [Compound 1]	–	–	–	–	–	17.5 ± 4.7 µM	0.04 ± 0.035 µM	> 150 µM	> 150 µM	> 150 µM	–	–
COc1ccc(-c2cc(C(=O)Nc3ccc(C(C)C)cc3)c3ccccc3n2)c(OC)c1 [Compound 3]	–	–	–	–	–	> 105 µM	–	> 150 µM	> 150 µM	> 150 µM	2.5 ± 2.5 µM	–
CC1CCCCN1CC(O)Cn1c(-c2ccccc2)c(-c2ccccc2)c2ccc3ccccc3c21 (stereo not shown) [Compound 4]	–	–	–	–	–	4.1 ± 0.2 µM	3.7 ± 0.7 µM	> 38 µM	> 38 µM	12 µM (≈ 5.7 µg/mL)	–	–
CCOc1ccc2nc3cc(NC(=O)c4cccc(Br)c4)ccc3c(N)c2c1 [Compound 5]	–	–	–	–	–	0.46 ± 0.04 µM	4.4 ± 0.6 µM	> 75 µM	5.8 µM (≈ 2.53 µg/mL)	7.5 µM (≈ 3.27 µg/mL)	–	< 25 µM
Cc1c(-c2ccccc2)[o+]c2ccccc2c1C#Cc1ccccc1 [Compound 6]	–	–	–	–	–	–	5 ± 3 µM	> 150 µM	> 150 µM	> 150 µM	–	–
Oc1cccc(Nc2nc(-c3ccc(Cl)c(Cl)c3)cs2)c1 [Compound 7]	–	–	–	–	–	–	5.5 ± 0.3 µM	> 150 µM	4.7 µM (≈ 1.58 µg/mL)	26 µM (≈ 8.77 µg/mL)	–	< 25 µM
COc1ccc(-c2cc(C(=O)Nc3ccc4c(c3)OCCO4)c3ccccc3n2)c(OC)c1 [Compound 8]	–	–	–	–	–	> 105 µM	–	> 38 µM	> 38 µM	> 38 µM	6.9 ± 2 µM	–
COc1cccc(Nc2nc(Cl)nc(Nc3cccc(OC)c3)n2)c1 [Compound 9]	–	–	–	–	–	> 105 µM	–	> 150 µM	> 150 µM	> 150 µM	9.2 ± 1 µM	–
